Experimental data taken from US10927139B2, “Chemically cleavable group” (Tagworks Pharmaceuticals B.V., priority 2012, dated 2021).
Where two headings read alike, the source gives them in different places. Each block holds one compound with its values, some of them ahead of it.

Columns and labels:
[1] = Binding of TCO-protected doxorubicin to beads coated with BSA-tetrazine and doxorubicin release (HPLC)
Experimental: Tetrazine functionalization of a BSA-coated particle has been described in J. Nucl. Med. 2013, 54, 1989-1995. Briefly, a solution of BSA (bovine serum albumin; 0.7 mg) in PBS was mixed with a 10 mg/mL solution of a bis-pyridyl-tetrazine-NHS derivative in DMF (35 μL, 30 eq. with respect to BSA) and the pH was adjusted to 9.0 with 1 M sodium carbonate buffer. The solution (125 μL total) was incubated at room temperature for 30 min then the unreacted tetrazine was removed from the solution by using a Zeba desalting spin column (7 kDa MW cut-off) pre-washed with PBS. UV measurements confirmed the presence of 12 tetrazine moieties per BSA molecule.
The eluate containing BSA-tetrazine in PBS was added to a 350 μL suspension of polystyrene beads (Polybeads, 0.5 μm, Polysciences) in H2O and the resulting suspension was incubated at +4° C. for 1 h on an end-over-end rotating mixer (10 rpm). After incubation, the suspension of beads coated with BSA-tetrazine was centrifuged at 12,000 rpm for 4 min. The supernatant was carefully removed and the pellet was resuspended in 1.5 mL PBS by using a tip sonicator at low power (Sonics VibraCell, 4×5 sec pulses, 40% of power). The centrifuging-resuspension cycle was repeated 2 times, after which the bead pellet was resuspended in 200 μL PBS and reacted with 7 nmol of TCO-protected doxorubicin (TCO-3-Doxorubin, 1 mM in DMSO).
After 5 min incubation at 37° C. in a thermomixer (350 rpm), the beads were removed by centrifugation and the supernatant was analyzed by HPLC on an Agilent Techologies system (1100 series) equipped with a fluorescence detector with λhex=485 nm and λem=590 nm. The sample was loaded on an Eclipse XDB-C18 column (5 μm, 4.6×150 mm^2, Agilent) which was eluted isocratically with 30% (v/v) acetonitrile in H2O containing 0.1% TFA (v/v) at 1 mL/min. HPLC analysis of the supernatant confirmed that ca. 75% of TCO-doxorubicin was bound to the beads.
The bead pellet was resuspended in 1.5 mL PBS and centrifuged twice to eliminate unbound TCO-doxorubicin. Subsequently, the beads were resuspended in 400 μL PBS and incubated at 37° C. At various times, aliquots of the supernatant were analyzed by HPLC. The chromatographic profiles (FIG. 2) show release of free doxorubicin (Rt=6.2 min) from the beads with time (>45% after 3 h; complete within 24 h).

[2] = TCO-doxorubicin with uncoated and unmodified beads (comparison); details: same conditions
[3] = Testing the stability of a TCO compound under chemical conditions (HPLC-MS/PDA, GC-MS); assay type: physicochemical
Experimental: (§1) The feasibility to use the TCO group as a protective group in chemistry was studied by testing the stability of a range of TCO derivatives as model compounds under various conditions, and following the deprotection upon reaction with a tetrazine derivative under these conditions.
Typical Example for Testing the Stability of a TCO Compound
The TCO stock solution (10 μL 25 mM; 2.5*10^−7 mol) was added to a solution of the specific condition (100 μL). The mixture was stirred at the specific condition for a certain amount of time, and then the fate of the TCO compound was monitored by HPLC-MS/PDA analysis and/or GC-MS analysis, and an estimation of its stability was made.
(§2) A) in acetonitrile with 5 equivalents of pyridine per TCO at 20° C.
(§3) B) in acetonitrile with 5 equivalents of DIPEA per TCO at 20° C.
(§4) C) in acetonitrile with 5 equivalents of piperidine per TCO at 20° C.
(§5) D) in acetonitrile with 5 equivalents of n-butylamine per TCO at 20° C.
(§6) E) in acetonitrile with 5 equivalents of 2-mercaptoethanol per TCO at 20° C.
(§7) F) in tetrahydrofuran with 5 equivalents of triphenylphosphine per TCO at 20° C.
(§8) G) in acetonitrile with 5 equivalents of DCC per TCO at 20° C.
(§9) H) in acetonitrile with 5 equivalents of PyBOP per TCO at 20° C.
(§10) I) in acetonitrile with 1 v % of formic acid at 20° C.
(§11) J) in chloroform at 20° C.
(§12) K) in chloroform with 1 v % of formic acid at 20° C.
(§13) L) in chloroform with 1 v % of trifluoroacetic acid at 20° C.
(§14) M) in chloroform with 10 v % of trifluoroacetic acid at 20° C.
(§15) N) in chloroform with 33 v % of trifluoroacetic acid at 20° C.
(§16) Z) in 25% acetonitrile in water at 20° C.

[4] = Testing the feasibility of the deprotection of TCO compounds upon reaction with tetrazine
Experimental: as §1
Typical Example for Testing the Feasibility of the Deprotection
The TCO stock solution (10 μL 25 mM in acetonitrile; 2.5*10^−7 mol) was added to a solution of the specific condition (100 μL). A solution of 3,6-dimethyl-1,2,4,5-tetrazine (8, 20 μL 25 mM in acetonitrile; 5.0*10^−7 mol) was added, and the mixture was stirred at the specific condition for a certain amount of time. The reaction was monitored by HPLC-MS/PDA analysis and/or GC-MS analysis, and the percentage of deprotection was estimated.
as §2, §3, §4, §5, §6, §7, §8, §9, §10, §11, §12, §13, §14, §15, §16

[5] = as above; details: 20° C.
streptavidin beads = target: T1, streptavidin beads (Streptomyces avidinii, UniProt P22629); assay: Capture of 125I-Rtx-TCO-biotin with streptavidin beads (gamma counting); assay type: binding; details: 1 hour incubation
T1 construct: purchased Invitrogen
Experimental: Rituximab (Rtx, 100 μg in 200 μL PBS, Roche) was radiolabeled with ^125I (Perkin Elmer) in a Pierce iodination tube (5 min incubation at room temperature) followed by size exclusion (SEC) purification (2 times, 0.5 mL Zeba desalting spin cartridge, 40 kDa MWCO, Pierce). Subsequently, non-radioactive Rtx was added to the solution (making 1 mg total Rtx), the pH was adjusted to 9 with 1 M sodium carbonate buffer and TCO-2-Biotin (3 eq., 5 mg/mL in DMSO) was added. The reaction mixture (200 μL) was incubated for 2 hours at 37° C. (350 rpm), purified once by SEC cartridge and then analyzed by SEC HPLC on an Agilent 1200 system equipped with a Gaby radioactive detector and UV detector and connected to a BioSep-SEC-S-3000 column (300×7.8 mm, 5 μm particles, Phenomenex) which was eluted at 1 mL/min with 0.1 M phosphate 0.15 M NaCl pH 6.8.
Subsequently, various amounts of ^125I-Rtx-TCO-biotin were combined with 1 mg streptavidin beads (Dynabeads MyOne Streptavidin Cl, Invitrogen) in 200 μL PBS and incubated for 1 hour at room temperature on a roller bench, to avoid bead settling. After incubation, the supernatants were removed and the beads were washed extensively with PBS.

[6] = Deprotection of N-TCO protective group (Example 6, 1H-NMR); details: chloroform with trifluoroacetic acid; 3,6-dimethyl-1,2,4,5-tetrazine (8); 20° C. for 40 min
Experimental: (N-TCO-6-aminohexyl) phenylcarbamate (5.61 mg; 1.44*10^−5 mol) was dissolved in chloroform (0.6 mL) and trifluoroacetic acid (20 mg; 1.75*10^−4 mol) was added. Subsequently, a solution of 3,6-dimethyl-1,2,4,5-tetrazine (8, 1.90 mg; 1.73*10^−5 mol) in chloroform (0.1 mL) was added. The pink, homogeneous mixture was stirred at 20° C. for 40 min. According to ^1H-NMR, more than 95% was deprotected. The reaction mixture was washed with aqueous potassium carbonate (0.5 mL 0.4 M), dried over sodium sulfate, filtered, and evaporated to dryness. The crude product was purified by preparative RP-HPLC and isolated by lyophilization to yield a white powder (2.31 mg; 68%). ^1H-NMR (DMSO-d6): δ=9.60 (s, 1H), 7.46 (d, 2H), 7.26 (t, 2H), 6.97 (t, 1H), 4.06 (t, 2H), 2.60 (t, 2H), 1.62 (m, 2H), 1.33 (m, 6H) ppm. ^13C-NMR (CDCl3): δ=153.6, 139.2, 128.7, 122.2, 118.1, 73.8, 64.1, 41.5, 33.3, 28.6, 26.1, 25.4 ppm. FT-IR (ATR): v=3343, 2939, 1707, 1542, 1448, 693 cm^−1. LC-MS: m/z=+237.17 [M+H]+(calcd 236.15 for C13H20N2O2).

[7] = 0.1 M HCOOH buffer, pH = 2.0 for 2 day, 20° C.
[8] = 0.1 M NH3 buffer, pH = 11 for 5 day, 20° C.
[9] = 0.1 M NH4OAc buffer, pH = 7.0 for 5 day, 20° C.
[10] = 0.1 M NH4OAc buffer, pH = 8.0 for 8 day, 20° C.
[11] = 0.1 M NH4OAc buffer, pH = 10.0 for 8 day, 20° C.
[12] = 10% MeCN in H2O at 70° C. for 5 day
[13] = with 5 eq. of DIPEA in MeCN for 16 h, 20° C.
[14] = with 5 eq. of PyBOP in MeCN for 16 h, 20° C.

Compound: COc1cccc2c1C(=O)c1c(O)c3c(c(O)c1C2=O)C[C@@](O)(C(=O)CO)C[C@@H]3O[C@H]1CC(NC(=O)OCc2ccc(OC(=O)N[C@@H]3CC/C=C/CC[C@@H]3N)cc2)[C@H](O)C(C)O1 (stereo partly drawn) [TCO-3-Doxorubicin]
- TCO-doxorubicin bound to the beads ([1]; BSA-tetrazine coated beads, 5 min incubation at 37° C., HPLC of supernatant): ca. 75%
- time to complete release of free doxorubicin from the beads ([1]; PBS, 37° C.): ≤ 24 h
- release of free doxorubicin from the beads ([1]; PBS, 37° C., after 3 h): > 45%
- non-specific proDox adsorption on the bead surface [2]: > 95%

- Stability of TCO [3, 7]: stable
- Stability of TCO: cyclization [3, 8]: < 5%
- Stability of TCO [3, 9]: stable
- Stability of TCO [3, 10]: stable
- Stability of TCO ([3]; 0.1 M NH4OAc buffer, pH = 9.0 for 8 day, 20° C.): stable
- Stability of TCO [3, 11]: stable
- Stability of TCO: cyclization [3, 12]: <5%
- Stability of TCO ([3]; 10% MeCN in H2O for 5 day, 20° C.): stable
Compound: COc1cc(COC(=O)NC2CC/C=C/CCC2N)cc(OC)c1OC (stereo not drawn)
- Deprotection (%) [4, 7]: 0%
- Deprotection (%) [4, 8]: 87%
- Deprotection (%) [4, 9]: 0%
- Deprotection (%) [4, 10]: 0%
- Deprotection (%) [4, 11]: 81%
- Deprotection (%) [4, 12]: 50%
- Deprotection (%) ([5]; 0.1 M NH4OAc buffer, pH = 9.0 for 8 day): 25%
- Deprotection (%) ([5]; 10% MeCN in H2O for 5 day): 0%

Compound: ^125I-Rtx: Rituximab (Rtx, Roche) radiolabeled with 125I
- radioactivity bound to streptavidin beads (streptavidin beads): almost no radioactivity was bound

Compound: O=C(Nc1ccccc1)OCCCCCCNC(=O)OC1/C=C/CCCCC1 (stereo not drawn) [(N-TCO-6-aminohexyl) phenylcarbamate]
- deprotected according to 1H-NMR [6]: more than 95%

Compound: NC1CC/C=C/CCC1NC(=O)Oc1ccccc1 (stereo not drawn)
- half-life ([3]; 0.1 M NH4OAc buffer, pH = 7.0, 20° C., read-out: Stability of TCO, t1/2): 80 h
- half-life ([3]; 0.1 M NH4OAc buffer, pH = 8.0, 20° C., read-out: Stability of TCO, t1/2): 17 h
- half-life at 2.3 mM ([3]; 0.1 M NH4OAc buffer, pH = 9.0, 20° C., read-out: Stability of TCO, t1/2): 5.3 h
- Stability of TCO: cyclization [3, 13]: 6.7%
- Stability of TCO: cyclization ([3]; with 5 eq. of HCOOH in MeCN for 16 h, 20° C.): 1.9%
- Stability of TCO: cyclization [3, 14]: 5.9%
- Stability of TCO: cyclization ([3]; with 5 eq. of pyridine in MeCN for 16 h, 20° C.): 2.6%
- Deprotection (%) [4, 13]: 98.8%
- Deprotection (%) [4, 14]: 24.4%
- Deprotection (%) ([5]; with 5 eq. of HCOOH in MeCN for 16 h): 33.9%
- Deprotection (%) ([5]; with 5 eq. of pyridine in MeCN for 16 h): 71.7%
